Laboratory results as given in patent US9107814B2, “Micelle composition of polymer and passenger drug” (Wisconsin Alumni Research Foundation, priority 2005, dated 2015).
Values after ≈ are worked out from the molar mass of the structure shown. Where two headings read alike, the source gives them in different places. Blank lines part the entries; values can stand above or below the compound they belong to.

Key:
[1] = loading of rapamycin and geldanamycin into PEG-DSPE and PEG-PCL micelles; type: physicochemical; settings: micelle solution against water solubility
Text: The final solvent to water ratio is between about 0.1 and about 5, preferably between about 0.5 and about 4, and more preferably about 2. The micelle solution should be delivered at a rate of between about 2 s/drop and about 60 s/drop, preferably between about 5 s/drop and about 30 s/drop, and more preferably between about 10 s/drop and about 20 s/drop.

[2] = test system: MDA-MB-468 breast cancer cell line; test: MTS cytotoxicity assay; type: cell-based; settings: MDA-MB-468, 4 days, drugs in 1% DMSO
Method: Cytotoxicities of the drugs to the MDA-MB-468 breast cancer cell line (ATCC) were determined. Cells are plated at a density of 3000 cells/well into 96 well plates (100 μl/well DMEM medium). After 24 hours, drugs were added dissolved in 1% DMSO. Cells were incubated with drugs for 4 days and toxicity determined using the MTS cytotoxicity assay according to manufacturer's directions (Promega, Madison, Wis.).

[3] = preclinical trials; cited from earlier work
[4] = cited from earlier work
[5] = cited from earlier work; remark: listed apart in the source
[6] = paclitaxel prodrug loading and sizing of PEG-b-PCL micelles; type: physicochemical; settings: for Solubilized / prodrug w/w % / prodrug:caprolactone: 20% w/w prodrug loading in 0.5-mM PEG-b-PCL micelles; for Diameter (intensity): DLS, PEG-PCL micelles prepared at 20% w/w drug; for Solubilized (in parentheses): after evaporation to 25% of original volume and refiltration (0.22-μm)
Method: The organic solvent was then removed by stirring under an air purge. Where stated, samples were further concentrated by prolonged evaporation under an air purge. After removing the organic solvent, PEG-b-PCL micelles were passed through a 0.22-μm polyestersulfone filter to remove insoluble material and unincorporated drug. In a typical experiment, […] of PEG-b-PCL was dissolved in 0.75 ml of dry acetone and added dropwise (50 μL/min) to 2 ml of ddH2O yielding 0.5-mM PEG-b-PCL micelles after removing the volatile organic solvent.
The incorporation of prodrugs into PEG-b-PCL micelles was verified by equivalent retention times in UV and RI chromatographs from gel permeation chromatography. PEG-b-PCL micelles were injected on an OHpak SB-806M GPC column (20-μL injections, 0.5-mM PEG-b-PCL, 0.75 ml/min of ddH2O, 10° C.) (Shodex, Kawasaki, Japan) and detected by refractive index (RI) and UV absorbance (232 nm). Prodrug loading into PEG-b-PCL micelles was quantitatively determined by reverse-phase HPLC (Alltech Econosphere 3-μm 4.6×50 mm) using a 0.01% (v/v) trifluoroacetic acid—ACN gradient (40-100% ACN, 50° C., 232-nm detection). Hydrodynamic diameters of PEG-b-PCL micelles were determined by dynamic light scattering (DLS) (NICOMP 380 ZLS, Particle Sizing Systems, Santa Barbara, Calif.). Data were analyzed by intensity-weighted Gaussian distribution fitting (NICOMP version 1.76). Measurements were made for a minimum of 10 min or at least 100×10^5 counts in channel 1.

[7] = octanol-water partition coefficient by microemulsion electrokinetic chromatography (MEEKC); settings: for log Po/w: pH 7.00 running buffer, ± standard deviation (n = 3)
Method: (§1) The octanol-water partition coefficient of geldanamycin was determined by microemulsion electrokinetic chromatography.
(§2) Running buffer was prepared by titration of 25-mM sodium phosphate monobasic with 50-mM sodium tetraborate to pH 7.00, and 1.44 g of sodium dodecyl sulfate, 6.49 g of 1-butanol, and 0.82 g of heptane were made up to 100 ml with phosphate-borate buffer. The running buffer was ultrasonicated for 30 min in a closed 250-ml flask in ice water (G112SP1 Special Ultrasonic Cleaner, Laboratory Supplies Company Inc., Hicksville, N.Y.). […] Compounds and standards (n=3) were dissolved in the running buffer (0.05 mg/ml) with 0.5 μL/ml of nitromethane and 0.5 μL/ml of 1-phenyldodecane by ultrasonication (10 min) in a closed tube and centrifuged (16000×g, 3 min) to degas. A BioFocus 3000 capillary electrophoresis system (Bio-Rad, Hercules, Calif.) equipped with a 50-μm ID×37-cm uncoated fused-silica column (Polymicron Technologies LLC, Phoenix, Ariz.) was used for MEEKC experiments. The column was prewashed with 1-M NaOH for 5 min and before runs with 0.1-M NaOH for 1 min, ddH2O for 1 min, and running buffer for 1 min at 100 psi (690 kPa). Running conditions were 10 kV (ca. 30-35 μA, 30 min/run) at 20° C. with 1-psi·s injections (6.9 kPa·s) and detection at 210 and 232 nm. Log Po/w and retention factors, k′, were calculated using the equations:
(§3) [formula] [formula] where tr, t0, and tme are retention times of the prodrug, nitromethane, and 1-phenyldodecane, respectively. Fitting parameters a and b were determined by linear regression of known standards: pyridine, phenol, benzoic acid, anisole, benzene, toluene, dodecanoic acid, benzopyrene, and pyrene (R^2=0.996, Excel® 2003, Microsoft Corp.).

[8] = geldanamycin prodrug loading into and release from PEG-b-PCL micelles; type: physicochemical; settings: for Diff Coef: 0.5 mM PEG-b-PCL (5000:10000 Da) micelles, pH 7.4 phosphate buffer, 37° C., 10000MWCO dialysis; for w/w drug/carrier / Conc: 0.5 mM PEG-b-PCL micelles; for w/w drug/carrier: target 25% wt loading; for Conc: target […]; for time after which almost/substantially all the drug is released: prodrug loaded micelles; for fraction released: prodrug in micelles
Method: Drug diffusion was calculated as described in Forrest and Kwon, 2005 (Journal of Controlled Release).
PEG-PCL micelles are prepared by the drop-wise addition of geldanamycin prodrug and PEG-PCL dissolved in a miscible solvent, acetone, to vigorously stirred water, followed by removal of the solvent by N2 purge, and 0.2-μm filtration. Alternatively, the solution may be centrifuged to remove unincorporated and aggregated drug. The final solvent to water ratio is between about 0.1 and about 5, preferably between about 0.5 and about 4, and more preferably about 2. The micelle solution should be delivered at a rate of between about 2 s/drop and about 60 s/drop, preferably between about 5 s/drop and about 30 s/drop, and more preferably between about 10 s/drop and about 20 s/drop.

[9] = cited from earlier work; remark: listed apart in the source

Method for physchem: as §1, §2, §3

Structure (SMILES): COC1=C2C[C@@H](C)C[C@H](OC)[C@H](O)[C@@H](C)/C=C(\C)[C@H](OC(N)=O)[C@@H](OC)/C=C\C=C(/C)C(=O)NC(=CC1=O)C2=O [Geldanamycin]
increase in solubility [1]: 300 fold
IC50 ([2]; Homo sapiens, 96 h): 5 nM
dose limiting severe hepatotoxicity [3]: 4 mg/kg
water solubility [4]: ~1.5 µg/mL (≈ 2.68 µM)
chromatographic logP (physchem): ~2.77
MTD dog [5]: < 100 mg/m^2

Solubilized [6]: 1.42 ± 0.11 mg/mL
prodrug w/w % [6]: 17.8%
prodrug:caprolactone [6]: 33.4 mmol:mol
Diameter (intensity) [6]: 32 ± 0 nm
Solubilized (in parentheses) [6]: > 3 mg/mL
log Po/w [7]: 4.45 ± 0.03
Structure (SMILES): CCCCCC(=O)O[C@@H](C(=O)O[C@H]1C[C@@]2(O)[C@@H](OC(=O)c3ccccc3)[C@@H]3[C@]4(OC(C)=O)CO[C@@H]4C[C@H](O)[C@@]3(C)C(=O)[C@H](OC(C)=O)C(=C1C)C2(C)C)[C@@H](NC(=O)c1ccccc1)c1ccccc1 [Prodrug 5a]

Diff Coef [8]: 3.61 × 10^−20 cm2/s
w/w drug/carrier [8]: 22 ± 5%
Conc [8]: 1700 µg/mL
time after which almost/substantially all the drug is released [8]: about 8 days
fraction released ([8]; time 0 days): 0
fraction released ([8]; time 0.83 days): 0.1695
fraction released ([8]; time 2 days): 0.2916
fraction released ([8]; time 4 days): 0.6116
fraction released ([8]; time 8 days): 0.9528
Structure (SMILES): CCCCCCCCCCCCCCCC(=O)OCCNC1=C2CC(C)CC(OC)C(O)C(C)C=C(C)C(OC(N)=O)C(OC)C=CC=C(C)C(=O)NC(=CC1=O)C2=O (stereo not shown) [17-aminoethyl-palmitate-17-demethoxygeldanamycin]
IC50 [2]: 350 nM

Structure (SMILES): CCCCCC(=O)O[C@H]1C[C@H]2OC[C@@]2(OC(C)=O)[C@H]2[C@H](OC(=O)c3ccccc3)[C@]3(O)C[C@H](OC(=O)[C@H](O)[C@@H](NC(=O)c4ccccc4)c4ccccc4)C(C)=C([C@@H](OC(C)=O)C(=O)[C@]12C)C3(C)C [Prodrug 4a]
Solubilized [6]: 1.55 ± 0.04 mg/mL
prodrug w/w % [6]: 17.1%
prodrug:caprolactone [6]: 36.5 mmol:mol
Diameter (intensity) [6]: 34 ± 4 nm
Solubilized (in parentheses) [6]: 5.1 ± 0.5 mg/mL
log Po/w [7]: 4.43 ± 0.06

Diff Coef [8]: 2.55 × 10^−20 cm2/s
w/w drug/carrier [8]: 21 ± 2%
Conc [8]: 1600 µg/mL
time after which almost/substantially all the drug is released [8]: about 8 days
fraction released ([8]; time 0 days): 0
fraction released ([8]; time 0.83 days): 0.1688
fraction released ([8]; time 2 days): 0.2909
fraction released ([8]; time 4 days): 0.3431
fraction released ([8]; time 6 days): 0.8531
fraction released ([8]; time 8 days): 0.9878
Log Po/w [7]: 4.16
Structure (SMILES): CCCCCCCCCCCC(=O)OCCNC1=C2CC(C)CC(OC)C(O)C(C)C=C(C)C(OC(N)=O)C(OC)C=CC=C(C)C(=O)NC(=CC1=O)C2=O (stereo not shown) [17-aminoethyl-dodeconate-17-demethoxygeldanamycin]

Structure (SMILES): CCCCCCCCCCCCCCCC(=O)O[C@@H](C(=O)O[C@H]1C[C@@]2(O)[C@@H](OC(=O)c3ccccc3)[C@@H]3[C@]4(OC(C)=O)CO[C@@H]4C[C@H](O)[C@@]3(C)C(=O)[C@H](OC(C)=O)C(=C1C)C2(C)C)[C@@H](NC(=O)c1ccccc1)c1ccccc1 [Prodrug 5c, 2-palmitate-paclitaxel]
Solubilized [6]: 1.85 ± 0.05 mg/mL
prodrug w/w % [6]: 19.8%
prodrug:caprolactone [6]: 40.0 mmol:mol
Diameter (intensity) [6]: 37 ± 6 nm
Solubilized (in parentheses) [6]: > 3 mg/mL
log Po/w [7]: 4.51 ± 0.04

Solubilized [6]: 1.47 ± 0.03 mg/mL
prodrug w/w % [6]: 16.4%
prodrug:caprolactone [6]: 31.8 mmol:mol
Diameter (intensity) [6]: 27 ± 5 nm
Solubilized (in parentheses) [6]: 2.2 ± 0.5 mg/mL
log Po/w [7]: 4.59 ± 0.18
Structure (SMILES): CCCCCCCCCCCC(=O)O[C@H]1C[C@H]2OC[C@@]2(OC(C)=O)[C@H]2[C@H](OC(=O)c3ccccc3)[C@]3(O)C[C@H](OC(=O)[C@H](O)[C@@H](NC(=O)c4ccccc4)c4ccccc4)C(C)=C([C@@H](OC(C)=O)C(=O)[C@]12C)C3(C)C [Prodrug 4b]

Structure (SMILES): CO[C@H]1/C=C\C=C(/C)C(=O)NC2=CC(=O)C(NCCN(C)C)=C(C[C@@H](C)C[C@H](OC)[C@H](O)[C@@H](C)/C=C(\C)[C@@H]1OC(N)=O)C2=O [Prodrug 17DMAG]
MTD dog [5]: 8 mg/m^2

Structure (SMILES): C=CCNC1=C2C[C@@H](C)C[C@H](OC)[C@H](O)[C@@H](C)/C=C(\C)[C@H](OC(N)=O)[C@@H](OC)/C=C\C=C(/C)C(=O)NC(=CC1=O)C2=O [Prodrug 17-AAG]
MTD dog ([5]; in vivo): 500 mg/m^2
dose limiting toxicity ([9]; Phase I): GI toxicity to be dose limiting
suggested Phase II dosing ([9]; from Phase I results): 40 mg/m^2

Solubilized [6]: 1.62 ± 0.03 mg/mL
prodrug w/w % [6]: 21.6%
prodrug:caprolactone [6]: 33.3 mmol:mol
Diameter (intensity) [6]: 44 ± 2 nm
Solubilized (in parentheses) [6]: 3.0 ± 0.9 mg/mL
log Po/w [7]: 4.48 ± 0.06
Structure (SMILES): CCCCCCCCCCCCCCCC(=O)O[C@H]1C[C@H]2OC[C@@]2(OC(C)=O)[C@H]2[C@H](OC(=O)c3ccccc3)[C@]3(O)C[C@H](OC(=O)[C@H](O)[C@@H](NC(=O)c4ccccc4)c4ccccc4)C(C)=C([C@@H](OC(C)=O)C(=O)[C@]12C)C3(C)C [Prodrug 4c, 7-palmitate-paclitaxel]

Structure (SMILES): COC1C=CC=C(C)C(=O)NC2=CC(=O)C(NCCO)=C(CC(C)CC(OC)C(O)C(C)C=C(C)C1OC(N)=O)C2=O (stereo not shown) [17-hydroxyethylamino-17-demethoxygeldanamycin, reference compound]
IC50 [2]: 73 nM

Solubilized [6]: 1.57 ± 0.02 mg/mL
prodrug w/w % [6]: 17.3%
prodrug:caprolactone [6]: 34.0 mmol:mol
Diameter (intensity) [6]: 28 ± 0 nm
Solubilized (in parentheses) [6]: > 3 mg/mL
log Po/w [7]: 4.49 ± 0.03
Structure (SMILES): CCCCCCCCCCCC(=O)OC(C(=O)OC1CC2(O)C(OC(=O)c3ccccc3)C3C4(OC(C)=O)COC4CC(O)C3(C)C(=O)C(OC(C)=O)C(=C1C)C2(C)C)C(NC(=O)c1ccccc1)c1ccccc1 (stereo not shown) [Prodrug 5b]

Solubilized [6]: <0.2 mg/mL
prodrug:caprolactone [6]: <1 mmol:mol
chromatographic logP (physchem; pH 7): 4.4 ± 0.06
Structure (SMILES): CC(=O)O[C@H]1C(=O)[C@@]2(C)[C@H]([C@H](OC(=O)c3ccccc3)[C@]3(O)C[C@H](OC(=O)[C@H](O)[C@@H](NC(=O)c4ccccc4)c4ccccc4)C(C)=C1C3(C)C)[C@]1(OC(C)=O)CO[C@@H]1C[C@@H]2O [Paclitaxel, reference compound]

Structure (SMILES): CCCCCCCCCCCCCCCCNC1=C2CC(C)CC(OC)C(O)C(C)C=C(C)C(OC(N)=O)C(OC)C=CC=C(C)C(=O)NC(=CC1=O)C2=O (stereo not shown) [17-amino-hexyldecyl-17-demethoxygeldanamycin]
Diff Coef [8]: 1.69 × 10^−20 cm2/s
w/w drug/carrier [8]: 20 ± 2%
Conc [8]: 1500 µg/mL
time after which almost/substantially all the drug is released [8]: about 12 days
fraction released ([8]; time 0 days): 0
fraction released ([8]; time 0.83 days): 0
fraction released ([8]; time 2 days): 0.1398
fraction released ([8]; time 4 days): 0.3551
fraction released ([8]; time 6 days): 0.3985
fraction released ([8]; time 8 days): 0.6364
fraction released ([8]; time 10 days): 0.7517
fraction released ([8]; time 12 days): 0.8238
Log Po/w [7]: 4.30

Structure (SMILES): CCCCCC(=O)OCCNC1=C2CC(C)CC(OC)C(O)C(C)C=C(C)C(OC(N)=O)C(OC)C=CC=C(C)C(=O)NC(=CC1=O)C2=O (stereo not shown) [17-aminoethyl-hexonate-17-demethoxygeldanamycin]
IC50 [2]: 240 nM
